Experiments:
[1] = system: differentiated L6-myotubes; assay: cAMP production relative to isoprenaline (Biological example 2 of WO 2019/053427); assay type: cell-based; settings: 0.25 h, compound at 10 μM, activity relative to isoproterenol at 10 μM
Summary of the method: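 Differentiated L6 myotubes stimulated 15 min with test compound or isoprenaline, each at final 1×10^−5 M, in HBSS with 1% BSA, 5 mM HEPES, 1 mM IBMX, pH 7.4. cAMP production by the compound expressed relative to that induced by the same concentration of isoprenaline.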

[2] = system: differentiated L6-myotubes; assay: Glucose uptake screen (Biological example 1 of WO 2019/053427); assay type: cell-based; settings: compound at 10 μM, activity relative to isoproterenol at 10 μM, read-out: Biological example 1 of WO 2019/053427 (GU)
Summary of the method: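 Rat L6 myoblasts were differentiated into myotubes over 7 days in 2% FBS, then serum-starved overnight. Cells were stimulated with 1×10^−5 M compound plus β2 antagonist ICI-118551 for 1 h 40 min and re-dosed for 20 min in glucose-free medium. Uptake of 50 nM ^3H-2-deoxyglucose over 10 min was counted after NaOH lysis.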

Row | Structure (SMILES) | Emax at 10 µM [1] | Emax at 10 µM [2]
1 | CC(C)(C)NC[C@H](O)c1cccc(F)c1 [Compound 54, (R)-2-(tert-butylamino)-1-(m-fluorophenyl)-1-ethanol] | < 25% | > 75%
2 | CC1(C)CCC[C@@H]([C@@H](O)c2ccccc2F)N1 [Compound 192, (S)-[(S)-6,6-dimethyl-2-piperidyl](o-fluorophenyl)methanol] | < 25% | 25 to 50%
3 | CCCCCCNCC(O)c1ccc(O)cc1 (stereo not drawn) [Compound 17, 2-(hexylamino)-1-(p-hydroxyphenyl)-1-ethanol] | < 25% | 25 to 50%
4 | CCC[C@@H]1CC[C@H]([C@H](O)c2cccc(Cl)c2)N1 [Compound 141, (R)-[(2R,5R)-5-propyl-2-pyrrolidinyl](m-chlorophenyl)methanol] | < 25% | 50 to 75%
5 | Oc1ccc(C(O)CNC2CCCC2)cc1 (stereo not drawn) [Compound 10, p-[2-(cyclopentylamino)-1-hydroxyethyl]phenol] | < 25% | 50 to 75%
6 | COC(=O)[C@H]1CC[C@H](CCC(C)(C)NC[C@H](O)c2cncc(F)c2)CC1 [Compound 342, methyl (1R,4r)-4-{3-[(R)-2-(5-fluoro-3-pyridyl)-2-hydroxyethylamino]-3-methylbutyl}cyclohexanecarboxylate] | < 25% | > 75%
7 | CCC[C@@H]1CCC[C@@H]([C@H](O)c2cccc(Cl)c2)N1 [Compound 115, (R)-[(2S,6R)-6-propyl-2-piperidyl](m-chlorophenyl)methanol] | < 25% | > 75%
8 | CC(C)(NC[C@H](O)c1cncc(F)c1)[C@H]1CC[C@H](NS(C)(=O)=O)CC1 [Compound 345, (R)-1-(5-fluoro-3-pyridyl)-2-{1-methyl-1-[(1r,4R)-4-(mesylamino)cyclohexyl]ethylamino}-1-ethanol] | < 25% | 25 to 50%
9 | CCCCNC[C@H](O)c1ccc(F)cc1 [Compound 46, (R)-2-(butylamino)-1-(p-fluorophenyl)-1-ethanol] | < 25% | 50 to 75%
10 | CC(C)(C[C@H]1CC[C@H](NC(=O)OC(C)(C)C)CC1)NC[C@H](O)c1cccc(C(F)(F)F)n1 [Compound 459, (1S,4r)-4-(2-{(S)-2-hydroxy-2-[6-(trifluoromethyl)-2-pyridyl]ethylamino}-2-methylpropyl)cyclohexyl 2-methyl-2-propanecabamate] | < 25% | > 75%
11 | CC(=O)N[C@H]1CC[C@@H](CC(C)(C)NC[C@H](O)c2cccc(F)c2)CC1 [Compound 452, N-[(1S,4s)-4-{2-[(R)-2-(m-fluorophenyl)-2-hydroxyethylamino]-2-methylpropyl}cyclohexyl]acetamide] | < 25% | > 75%
12 | CC(C)(CC[C@H]1CC[C@H](N)CC1)NC[C@H](O)c1cncc(F)c1 [Compound 358, (R)-2-{1,1-dimethyl-3-[(1r,4R)-4-aminocyclohexyl]propylamino}-1-(5-fluoro-3-pyridyl)-1-ethanol] | < 25% | 25 to 50%
13 | CC(=O)N(C)[C@H]1CC[C@@H](CC(C)(C)NC[C@H](O)c2cncc(F)c2)CC1 [Compound 507, N-[(1S,4s)-4-{2-[(R)-2-(5-fluoro-3-pyridyl)-2-hdyroxyethylamino]-2-methylpropyl}cyclohexyl]-n-methylacetamide] | < 25% | 50 to 75%
14 | CS(=O)(=O)N(Cc1ccccc1)[C@H]1CC[C@@H](C[C@@H]2CC[C@H]([C@@H](O)c3cccc(F)c3)N2)CC1 [Compound 509, (S)-[(2R,5S)-5-({(1s,4R)-4-[(benzyl)-N-mesylamino]cyclohexyl}methyl)-2-pyrrolidinyl](m-fluorophenyl)methanol] | < 25% | < 25%
15 | CC1(C)C[C@@H]([C@H](O)c2cccc(Cl)c2)N1 [Compound 232, (R)-[(S)-4,4-dimethyl-2-azetidinyl](m-chlorophenyl)methanol] | < 25% | 25 to 50%
16 | CS(=O)(=O)N(Cc1ccccc1)[C@H]1CC[C@H](C[C@@H]2CC[C@H]([C@H](O)c3cccc(F)c3)N2)CC1 [Compound 502, (R)-[(2R,5S)-5-({(1r,4S)-4-[(benzyl)-N-mesylamino]cyclohexyl}methyl)-2-pyrrolidinyl](m-fluorophenyl)methanol] | < 25% | < 25%
17 | CC(C)(NC[C@H](O)c1cccc(F)c1)[C@H]1CC[C@H](O)CC1 [Compound 283, (R)-1-(m-fluorophenyl)-2-{1-methyl-1-[(1r,4R)-4-hydroxycyclohexyl]ethyl-amino}-1-ethanol] | < 25% | 50 to 75%
18 | COC(=O)[C@H]1CC[C@H](C(C)(C)NC[C@H](O)c2cccc(F)c2)CC1 [Compound 367, (1R,4r)-8-[(R)-2-(m-fluorophenyl)-2-hydroxyethylamino]-7-methoxy-p-menthan-7-one] | 25 to 50% | > 75%
19 | CC12CCC([C@H](O)c3ccccc3Cl)(CC1)N2 [Compound 195, (R)-(o-chlorophenyl)(4-methyl-7-azabicyclo[2.2.1]hept-1-yl)methanol] | < 25% | > 75%
20 | CCCCNCC(O)c1cc[nH]c(=O)c1 (stereo not drawn) [Compound 62, 4-[2-(butylamino)-1-hydroyxethyl]-2(1H)-pyridinone] | < 25% | 25 to 50%
21 | CCC[C@H]1CCC[C@H]([C@H](O)c2ccccc2Cl)N1 [Compound 135, (R)-[(2R,6S)-6-propyl-2-piperidyl](o-chlorophenyl)methanol] | < 25% | 25 to 50%
22 | CC(=O)N[C@H]1CC[C@H](CC(C)(C)NC[C@H](O)c2cccnc2C)CC1 [Compound 434, N-[(1R,4r)-4-{2-[(R)-2-hydroxy-2-(2-methyl-3-pyridyl)ethylamino]-2-methylpropyl}cyclohexyl]acetamide] | < 25% | > 75%
23 | CC1(C)C[C@@H]([C@@H](O)c2ccccc2F)N1 [Compound 205, (S)-[(S)-4,4-dimethyl-2-azetidinyl](o-fluorophenyl)methanol] | < 25% | 25 to 50%
24 | CC(C)(C)NC[C@H](O)c1ncccc1Cl [Compound 146, (S)-2-(tert-butylamino)-1-(3-chloro-2-pyridyl)-1-ethanol] | < 25% | 25 to 50%
25 | CS(=O)(=O)N[C@H]1CC[C@H](C[C@@H]2CC[C@H]([C@H](O)c3cccc(F)c3)N2)CC1 [Compound 504, (R)-[(2R,5S)-5-{[(1r,4S)-4-(mesylamino)cyclohexyl]methyl}-2-pyrrolidinyl](m-fluorophenyl)methanol] | < 25% | 50 to 75%
26 | CC1(C)CCC[C@H]([C@H](O)c2cccc(O)c2)N1 [Compound 104, (R)-[(R)-6,6-dimethyl-2-piperidyl](m-hydroxyphenyl)methanol] | < 25% | 25 to 50%
27 | CC(=O)N[C@H]1CC[C@@H](C[C@@H]2CC[C@H]([C@@H](O)c3cccc(F)c3)N2)CC1 [Compound 483, N-[(1R,4s)-4-({(2S,5R)-5-[(S)-(m-fluorophenyl)hydroxymethyl]-2-pyrrolidinyl}methyl)cyclohexyl]acetamide] | < 25% | < 25%

From patent US20260256751A1, “COMBINATION OF BETA-2-ADRENERGIC RECEPTOR AGONISTS AND GLP-1 RECEPTOR AGONISTS FOR USE IN TREATING HYPERGLYCAEMIA” (ATROGI AB, priority 2023, published 2026)
